{
  "source": "patent US20210380586A1",
  "about": "“2-INDOLYL IMIDAZO[4,5-D]PHENANTHROLINE POLYMORPHS AND COMPOSITIONS REGARDING THE SAME” (Aptose Biosciences Inc., priority 2020, published 2021)",
  "key": {"[1]": {"experiment": "Single dose intravenous infusion in rats, toxicokinetic parameters in serum", "type": "in vivo, Sprague-Dawley rats", "procedure": "Compound I-hydrate Form 2 was formulated in 23% Solutol HS-15 and 70% PG and diluted with Lactated Ringer Solution to a concentration of 0.061 mg/mL. […] Dose volume was 10 mL/Kg and the infusion rate was 120 mL/kg/hr.\nFollowing dosing, a series of 12 blood samples (approximately 0.2 mL each) were collected from the rats in the first 72 hours. Following collection, blood samples were allowed to stand at room temperature for approximately 30 to 60 minutes to clot and then centrifused (1200×g for 10 minutes at approximately 4° C.) and the resulting serum was recovered and stored frozen until analysis. Mean toxicokinetic parameters were calculated (Table 7)."}, "[2]": {"experiment": "Polymorph transition study, slurry in water-methanol, XRPD", "type": "physicochemical", "settings": "in the presence of water", "procedure": "The Slurry was maintained at 20° C. or at 50° C. for one week then the resulting crystals were analyzed by XRPD to determine its polymorphic form."}, "[3]": {"experiment": "Variable relative humidity (VRH)-XRPD analysis", "type": "physicochemical", "procedure": "To investigate the behavior of Crystalline Form 2 at various humidities and evaluate conditions that favor generation of Form 2 (tetrahydrate) versus Form 3 (dihydrate), Form 2 was characterized by VRH-XRPD. The analysis was conducted by beginning at ambient RH (˜50%) and lowering to 0% RH for 4 hours. Actual RH during this time ranged from 0.7-0.3%."}, "[4]": {"experiment": "Exposure of solids to fixed relative humidity for 11 days, XRPD", "type": "physicochemical", "settings": "for form after exposure to humidity: 11 days", "text": "To determine relative humidity boundaries for conversion between Form 2 and Form 3, solids of Form 2 were exposed to P2O5 conditions (˜0% RH), 11%, and 23% RH. The solids were held at the specified humidities for 11 days to see if the longer duration would result in the presence of Form 3."}, "[5]": {"experiment": "Dynamic vapor sorption (DVS)", "type": "physicochemical", "procedure": "The mass uptake of 12% is equal to three equivalents of water; however, the material was not fully dry yet after drying at 0% RH for 24 hours. […] The water uptake and release is not stepwise, and no indication of other hydrates with different ratios of water is present.\nCompound I-hydrate Form 2 was also analyzed by DVS (FIG. 14). Form 2 steadily gained 1.1 wt % from 5-95% RH. It underwent complete desorption with minor hysteresis."}, "[6]": {"experiment": "IV formulation end user compatibility study, microscopic particulate examination", "type": "physicochemical", "procedure": "For the high concentration, […] of Compound I-tetrahydrate (4.0 mg/mL) was injected into a BBraun partial additive bag (PAB) for IV administration, attached to a Y-infusion set line. The other end of the Y infusion set line was connected to Lactated Ringer's Solution. Infusion is performed via the Y infusion set, such that the drug product is mixed with Lactated Ringer's Solution directly prior to administration. A total volume of 100 mL drug product at a rate of 50 mL/hr and 200 mL Lactated Ringer's Solution at a rate of 100 mL/hr were administered in a 2:1 ratio over a two hour period, to deliver 300 mL of eluent at a rate of 150 mL/hr.\nThe evaluation of particulate matter from collected IV samples was therefore performed by microscopic visual examination utilizing approximately 25 μL of IV co-infusion eluate, collected directly from the terminal end of the IV line, deposited on a microscope slide. […] The specific microscope settings used are shown below. A Positive Control sample containing a USP Particle Count Reference Standard consisting of spherical particles of known sizes between 10 μm and 15 μm (USP reference standard, Cat. No.: 1500502, lot #L0L142) was visualized under the microscope using a 10×10 lens."}, "[7]": {"experiment": "USP <788> Method 1 HIAC particle count after mixing with Lactated Ringers", "type": "physicochemical", "settings": "4 mg/mL mixed with Lactated Ringers 2:1, held in glass or Nalgene container", "procedure": "In USP <788> monograph, two methods were provided to determine particles or particulate matter in an injectable drug, i.e. using an analytical instrument to count particle or Method I (e.g. electronic light obscuration or HIAC method) or counting the particles using an optical microscope (Method 2). Prior to conducting the End-User Compatibility Study, a study was performed to determine the feasibility of sample collection and assessment by USP <788> Method I (HIAC analysis). For this study, Compound I-tetrahydrate (4 mg/mL) was mixed with Lactated Ringers IV Solution in a 2:1 ratio of Lactated Ringers solution to Compound I-tetrahydrate and held in a glass or Nalgene plastic container. Samples were held for 1, 5, 10, 15, 20, 25 and 30 minutes and analyzed by USP <788> Method 1 using a HIAC electronic light obscuration particle counter. […] This short time duration precluded the use of USP <788> Method 1 (HIAC) due to the large sample volumes (˜25 mL) and length of time required to collect this volume of sample, drop wise, from the infusion set."}, "[8]": {"settings": "4.0 mg/mL, Y-infusion with Lactated Ringer's Solution 2:1, 120 min simulated infusion run"}},
  "data": [
    {"smiles": "Cc1[nH]c2ccc(F)cc2c1-c1nc2c3cccnc3c3ncccc3c2[nH]1", "note": "[Compound I-hydrate Form 2]", "values": [
      {"measurement": "AUC(0-inf)", "setting": "[1]; Sprague-Dawley, rat, male rats serum, 0.5 mg/kg, single IV infusion over 5 min, mean", "result": 130, "unit": "ng·h/mL"},
      {"measurement": "AUC(0-t)", "setting": "[1]; Sprague-Dawley, rat, male rats serum, 0.5 mg/kg, single IV infusion over 5 min, mean, read-out: AUC0-Tlast", "result": 100, "unit": "ng·h/mL"},
      {"measurement": "clearance", "setting": "[1]; Sprague-Dawley, rat, male rats serum, 0.5 mg/kg, single IV infusion over 5 min, mean, read-out: Cl (total body clearance per kg body weight) (converted)", "result": 64, "unit": "mL/min/kg"},
      {"measurement": "Cmax", "setting": "[1]; Sprague-Dawley, rat, male rats serum, 0.5 mg/kg, single IV infusion over 5 min, mean, read-out: Cmax (maximum plasma concentration)", "result": 1750, "unit": "ng/mL"},
      {"measurement": "half-life", "setting": "[1]; Sprague-Dawley, rat, male rats serum, 0.5 mg/kg, single IV infusion over 5 min, mean, read-out: T1/2 (Terminal elimination half-life) (converted)", "result": 1.45, "unit": "h"},
      {"measurement": "Tmax", "setting": "[1]; Sprague-Dawley, rat, male rats serum, 0.5 mg/kg, single IV infusion over 5 min, mean, read-out: Tmax (time to maximum plasma concentration)", "result": 0, "unit": "h"},
      {"measurement": "Vd", "setting": "[1]; Sprague-Dawley, rat, male rats serum, 0.5 mg/kg, single IV infusion over 5 min, mean, read-out: Vz (volume of distribution per kg body weight)", "result": 8.04, "unit": "L/kg"},
      {"measurement": "AUC % Extrap", "setting": "[1]; male rats serum, 0.5 mg/kg, single IV infusion over 5 min, mean", "result": 23.1, "unit": "%"},
      {"measurement": "AUCs, fold higher than with Compound I-HCl salt", "setting": "[1]; rats, 0.5 mg/kg IV", "result": "approximately 3 fold"},
      {"measurement": "Cmax, fold higher than with Compound I-HCl salt", "setting": "[1]; rats, 0.5 mg/kg IV", "result": "approximately 3 fold"},
      {"measurement": "volume of distribution, fold higher than Compound I-HCl salt", "setting": "[1]; rats, 0.5 mg/kg IV", "result": 1.6, "unit": "fold"},
      {"measurement": "stability relative to Crystalline Form 1", "setting": "[2]", "result": "more stable"},
      {"measurement": "VRH-XRPD Results", "setting": "[3]; Held at ~0.3-0.7% RH, 4 hours", "result": "Form 2 + Form 3; amount of Form 3"},
      {"measurement": "VRH-XRPD Results", "setting": "[3]; Initial scan at ambient RH (46.3%)", "result": "Consistent with Form 2"},
      {"measurement": "VRH-XRPD Results", "setting": "[3]; finally held at ambient RH (~40% to ~37%)", "result": "Form 2 + trace amount of Form 3"},
      {"measurement": "VRH-XRPD Results", "setting": "[3]; then held at ~50% RH, 1 hour (cycling back)", "result": "Form 2, possibly contains trace"},
      {"measurement": "VRH-XRPD Results", "setting": "[3]; then held at ~50% RH, 1 hour (increasing RH)", "result": "Form 2 + Form 3"},
      {"measurement": "VRH-XRPD Results", "setting": "[3]; then held at ~80% RH, 1 hour (cycling back)", "result": "Form 2, possibly contains trace"},
      {"measurement": "VRH-XRPD Results", "setting": "[3]; then held at ~82-79% RH, 1 hour", "result": "Form 2 + trace amount of Form 3"},
      {"measurement": "VRH-XRPD Results", "setting": "[3]; then held at ~85-87% RH, 2 hours", "result": "Form 2, possibly contains trace"},
      {"measurement": "form after exposure to humidity", "setting": "[4]; 11% RH", "result": "no form change"},
      {"measurement": "form after exposure to humidity", "setting": "[4]; 23% RH", "result": "no form change"},
      {"measurement": "form after exposure to humidity", "setting": "[4]; P2O5 conditions (~0% RH)", "result": "converts to Form 3"},
      {"measurement": "relative humidity at and above which physically stable", "setting": "[4]; exposed for over a week", "result": "≥ 11", "unit": "% RH"},
      {"measurement": "XRPD of the post-DVS solids", "setting": "[5]; after sorption to 95% RH and desorption to 5% RH", "result": "No form change"},
      {"measurement": "DVS total mass uptake", "setting": "[5]; continuous isothermal adsorption of water after drying at 0% RH for 24 hours (FIGS. 7 and 8)", "result": 12, "unit": "%"},
      {"measurement": "DVS weight gain", "setting": "[5]; from 5-95% RH", "result": 1.1, "unit": "wt %"},
      {"measurement": "stability in DVS de-sorption cycle", "setting": "[5]; stable signal down to 10% RH", "result": "very stable"},
      {"measurement": "filter clogging or stoppage of the infusion pump", "setting": "[6]; [8]", "result": "No filter clogging"},
      {"measurement": "particles by microscope examination in eluent samples", "setting": "[6]; [8]", "result": "no particles were detected"},
      {"measurement": "time material may be infused without filter clogging", "setting": "[6]; \"Y-Line\" infusion set", "result": "up to 2 hours"},
      {"measurement": "time at which particulate formed at levels exceeding USP acceptance criteria", "setting": "[7]", "result": "approximately 10 minutes"}
    ]}
  ]
}
